These results are taken from paper PMC3639963, “A New Class of Small Molecule Inhibitor of BMP Signaling” (PLoS ONE, 2013).

Holding throughout (test): Nanosyn kinase profiling
Type in all cases: biochemical
Details in all cases: read-out: Percentage inhibition; for inhibition at 0.1 µM: 0.1 µM inhibitor; for inhibition at 1 µM: 1 µM inhibitor

Test [1] has as its target T1, FER (Homo sapiens, UniProt P16591).
T1 construct: purchased Nanosyn (enzymatic panel); SGC in-house recombinant human kinases (DSF panel); Invitrogen (ALK1-6)
How it is done: (§1) Percentage inhibition was determined for each kinase at both 0.1 µM and 1 µM inhibitor concentration (supplemental Table S2). […]. […]. When visualized on a kinase phylogenetic tree, these were primarily clustered within the receptor tyrosine kinases (TKs) as well as the calmodulin-dependent kinases (CAMKs) (Figure 2C).
(§2) Inhibitor selectivity profiling against 200 human kinases at 0.1 and 1 µM inhibitor concentration was performed by Nanosyn (www.nanosyn.com).

For test [2], the target named is T2, CDK2/cycA (Homo sapiens, UniProt P24941).
T2 construct: purchased Nanosyn (enzymatic panel); SGC in-house recombinant human kinases (DSF panel); Invitrogen (ALK1-6)
The method, then: as §1, §2

Test [3] concerns the target T3, PI4-K-β (Homo sapiens, UniProt Q9UBF8).
T3 construct: purchased Nanosyn (enzymatic panel); SGC in-house recombinant human kinases (DSF panel); Invitrogen (ALK1-6)
How it is done:
as §1, §2

The target in test [4] is T4, CK1α (Homo sapiens, UniProt P48729).
T4 construct: purchased Nanosyn (enzymatic panel); SGC in-house recombinant human kinases (DSF panel); Invitrogen (ALK1-6)
T4 sequence (P48729 whole entry): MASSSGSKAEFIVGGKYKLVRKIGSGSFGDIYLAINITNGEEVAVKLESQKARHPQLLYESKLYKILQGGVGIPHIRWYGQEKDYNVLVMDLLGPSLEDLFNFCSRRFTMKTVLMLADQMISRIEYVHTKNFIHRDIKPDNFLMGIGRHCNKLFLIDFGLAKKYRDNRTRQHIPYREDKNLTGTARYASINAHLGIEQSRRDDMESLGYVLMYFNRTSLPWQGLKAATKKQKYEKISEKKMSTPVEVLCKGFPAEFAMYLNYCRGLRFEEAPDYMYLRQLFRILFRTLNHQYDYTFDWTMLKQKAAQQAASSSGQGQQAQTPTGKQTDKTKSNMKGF
The method, then: as §1, §2

For test [5], the target named is T5, ROCK1 (Homo sapiens, UniProt Q13464).
T5 construct: purchased Nanosyn (enzymatic panel); SGC in-house recombinant human kinases (DSF panel); Invitrogen (ALK1-6)
T5 sequence (Q13464 whole entry): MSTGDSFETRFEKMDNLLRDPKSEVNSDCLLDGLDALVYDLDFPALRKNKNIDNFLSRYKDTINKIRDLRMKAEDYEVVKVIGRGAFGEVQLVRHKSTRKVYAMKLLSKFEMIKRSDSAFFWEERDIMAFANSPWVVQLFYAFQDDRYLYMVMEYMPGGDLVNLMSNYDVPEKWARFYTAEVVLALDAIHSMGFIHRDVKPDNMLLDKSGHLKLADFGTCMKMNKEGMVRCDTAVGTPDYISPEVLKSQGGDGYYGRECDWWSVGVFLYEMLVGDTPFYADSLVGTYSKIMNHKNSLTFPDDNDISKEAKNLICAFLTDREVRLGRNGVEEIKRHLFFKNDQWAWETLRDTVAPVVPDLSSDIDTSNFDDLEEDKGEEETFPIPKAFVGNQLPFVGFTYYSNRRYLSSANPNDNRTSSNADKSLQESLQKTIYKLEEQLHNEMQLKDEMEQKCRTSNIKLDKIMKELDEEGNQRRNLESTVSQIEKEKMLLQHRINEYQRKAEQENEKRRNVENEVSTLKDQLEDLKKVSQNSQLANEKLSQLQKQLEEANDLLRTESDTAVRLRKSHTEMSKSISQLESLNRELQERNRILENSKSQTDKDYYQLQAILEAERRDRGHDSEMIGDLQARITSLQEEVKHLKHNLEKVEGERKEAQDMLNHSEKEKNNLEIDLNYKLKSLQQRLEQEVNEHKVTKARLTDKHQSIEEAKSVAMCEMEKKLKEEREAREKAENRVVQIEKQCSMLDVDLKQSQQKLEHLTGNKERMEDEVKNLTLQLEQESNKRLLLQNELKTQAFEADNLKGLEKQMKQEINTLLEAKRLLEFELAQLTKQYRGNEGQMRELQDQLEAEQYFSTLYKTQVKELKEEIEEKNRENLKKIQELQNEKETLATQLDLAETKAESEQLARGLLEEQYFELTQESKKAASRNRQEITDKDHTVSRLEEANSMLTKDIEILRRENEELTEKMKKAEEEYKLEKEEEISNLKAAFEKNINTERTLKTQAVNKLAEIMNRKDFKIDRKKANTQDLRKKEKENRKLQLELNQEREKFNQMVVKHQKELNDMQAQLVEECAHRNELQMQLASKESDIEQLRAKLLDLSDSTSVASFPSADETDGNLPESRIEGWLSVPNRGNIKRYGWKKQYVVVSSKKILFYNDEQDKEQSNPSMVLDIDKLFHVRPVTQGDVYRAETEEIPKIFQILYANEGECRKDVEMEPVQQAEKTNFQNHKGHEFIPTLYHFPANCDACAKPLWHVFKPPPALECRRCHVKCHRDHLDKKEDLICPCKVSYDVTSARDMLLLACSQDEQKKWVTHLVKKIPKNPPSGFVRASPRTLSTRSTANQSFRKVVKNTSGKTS
How it is done: as §1, §2

The target in test [6] is T6, TRKB (Homo sapiens, UniProt Q16620).
T6 construct: purchased Nanosyn (enzymatic panel); SGC in-house recombinant human kinases (DSF panel); Invitrogen (ALK1-6)
T6 sequence (Q16620 32-822): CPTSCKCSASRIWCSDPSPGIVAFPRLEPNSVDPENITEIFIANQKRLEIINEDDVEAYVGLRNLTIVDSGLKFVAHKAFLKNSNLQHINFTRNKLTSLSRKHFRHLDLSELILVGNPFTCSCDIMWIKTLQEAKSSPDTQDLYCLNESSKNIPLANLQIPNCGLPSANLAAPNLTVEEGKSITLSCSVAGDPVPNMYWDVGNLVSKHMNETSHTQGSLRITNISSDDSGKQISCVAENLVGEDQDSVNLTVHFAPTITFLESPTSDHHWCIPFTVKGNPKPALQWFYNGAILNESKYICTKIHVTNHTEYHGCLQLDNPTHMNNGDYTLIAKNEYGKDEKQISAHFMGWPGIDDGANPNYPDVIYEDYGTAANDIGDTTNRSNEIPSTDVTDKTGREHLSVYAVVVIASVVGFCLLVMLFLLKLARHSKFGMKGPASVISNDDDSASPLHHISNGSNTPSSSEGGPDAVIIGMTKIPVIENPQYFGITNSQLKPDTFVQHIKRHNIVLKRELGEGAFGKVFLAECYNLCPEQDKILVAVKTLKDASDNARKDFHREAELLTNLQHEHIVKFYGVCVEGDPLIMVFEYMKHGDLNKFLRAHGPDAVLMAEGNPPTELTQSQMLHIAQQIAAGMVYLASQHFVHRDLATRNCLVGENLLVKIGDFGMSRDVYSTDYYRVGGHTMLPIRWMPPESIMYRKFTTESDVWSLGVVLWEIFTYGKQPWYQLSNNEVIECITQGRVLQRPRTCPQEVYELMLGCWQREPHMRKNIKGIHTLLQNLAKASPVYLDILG
How it is done: as §1, §2

The target of test [7] is T7, LYNB (Homo sapiens, UniProt P07948).
T7 construct: purchased Nanosyn (enzymatic panel); SGC in-house recombinant human kinases (DSF panel); Invitrogen (ALK1-6)
How it is done:
as §1, §2

In test [8] the target is T8, RSK3 (Homo sapiens, UniProt Q15349).
T8 construct: purchased Nanosyn (enzymatic panel); SGC in-house recombinant human kinases (DSF panel); Invitrogen (ALK1-6)
T8 sequence (Q15349 whole entry): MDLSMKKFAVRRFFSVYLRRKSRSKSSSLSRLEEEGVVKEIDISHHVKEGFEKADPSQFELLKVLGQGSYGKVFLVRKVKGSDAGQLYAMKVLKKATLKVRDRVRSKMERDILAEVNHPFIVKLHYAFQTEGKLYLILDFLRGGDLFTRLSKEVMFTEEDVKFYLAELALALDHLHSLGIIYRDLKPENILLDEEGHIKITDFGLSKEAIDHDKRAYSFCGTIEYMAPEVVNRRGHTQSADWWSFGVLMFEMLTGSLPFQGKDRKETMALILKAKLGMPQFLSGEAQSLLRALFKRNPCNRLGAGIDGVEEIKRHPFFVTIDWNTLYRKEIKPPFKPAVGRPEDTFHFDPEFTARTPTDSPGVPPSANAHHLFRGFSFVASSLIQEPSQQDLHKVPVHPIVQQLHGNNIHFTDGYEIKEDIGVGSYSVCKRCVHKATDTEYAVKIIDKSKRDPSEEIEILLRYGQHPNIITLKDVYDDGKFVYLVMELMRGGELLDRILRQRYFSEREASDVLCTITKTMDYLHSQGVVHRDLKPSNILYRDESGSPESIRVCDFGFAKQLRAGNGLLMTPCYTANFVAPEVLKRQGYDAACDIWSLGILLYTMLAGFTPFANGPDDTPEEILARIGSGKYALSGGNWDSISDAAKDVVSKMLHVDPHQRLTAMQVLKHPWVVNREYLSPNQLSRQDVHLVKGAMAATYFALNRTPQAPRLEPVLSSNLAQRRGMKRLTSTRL
How it is done:
as §1, §2

In test [9] the target is T9, DDR2 (Homo sapiens, UniProt Q16832).
T9 construct: purchased Nanosyn (enzymatic panel); SGC in-house recombinant human kinases (DSF panel); Invitrogen (ALK1-6)
T9 sequence (Q16832 22-855): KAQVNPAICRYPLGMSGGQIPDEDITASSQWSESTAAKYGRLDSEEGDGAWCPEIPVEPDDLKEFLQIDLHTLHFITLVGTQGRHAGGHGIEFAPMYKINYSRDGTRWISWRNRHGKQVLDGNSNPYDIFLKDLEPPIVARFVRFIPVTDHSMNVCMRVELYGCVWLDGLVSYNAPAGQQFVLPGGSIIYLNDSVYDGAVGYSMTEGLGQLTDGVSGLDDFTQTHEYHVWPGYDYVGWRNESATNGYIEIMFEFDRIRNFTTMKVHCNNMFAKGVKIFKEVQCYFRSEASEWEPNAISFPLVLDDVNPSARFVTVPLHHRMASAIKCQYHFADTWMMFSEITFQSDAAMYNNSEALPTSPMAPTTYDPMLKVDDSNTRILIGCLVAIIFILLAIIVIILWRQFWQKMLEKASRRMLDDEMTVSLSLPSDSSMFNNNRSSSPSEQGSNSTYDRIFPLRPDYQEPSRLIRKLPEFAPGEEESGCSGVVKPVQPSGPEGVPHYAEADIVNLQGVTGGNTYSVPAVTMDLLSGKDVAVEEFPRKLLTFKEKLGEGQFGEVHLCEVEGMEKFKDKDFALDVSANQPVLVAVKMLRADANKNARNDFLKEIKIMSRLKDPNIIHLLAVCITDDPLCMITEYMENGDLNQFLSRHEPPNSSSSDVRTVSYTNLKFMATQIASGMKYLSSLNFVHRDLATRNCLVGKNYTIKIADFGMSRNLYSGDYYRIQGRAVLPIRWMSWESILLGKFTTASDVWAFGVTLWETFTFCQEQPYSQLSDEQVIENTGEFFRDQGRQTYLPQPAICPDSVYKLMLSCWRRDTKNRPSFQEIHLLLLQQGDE
The method, then: as §1, §2

Test [10] concerns the target T10, EPHB4 (Homo sapiens, UniProt P54760).
T10 construct: purchased Nanosyn (enzymatic panel); SGC in-house recombinant human kinases (DSF panel); Invitrogen (ALK1-6)
T10 sequence (P54760 16-987): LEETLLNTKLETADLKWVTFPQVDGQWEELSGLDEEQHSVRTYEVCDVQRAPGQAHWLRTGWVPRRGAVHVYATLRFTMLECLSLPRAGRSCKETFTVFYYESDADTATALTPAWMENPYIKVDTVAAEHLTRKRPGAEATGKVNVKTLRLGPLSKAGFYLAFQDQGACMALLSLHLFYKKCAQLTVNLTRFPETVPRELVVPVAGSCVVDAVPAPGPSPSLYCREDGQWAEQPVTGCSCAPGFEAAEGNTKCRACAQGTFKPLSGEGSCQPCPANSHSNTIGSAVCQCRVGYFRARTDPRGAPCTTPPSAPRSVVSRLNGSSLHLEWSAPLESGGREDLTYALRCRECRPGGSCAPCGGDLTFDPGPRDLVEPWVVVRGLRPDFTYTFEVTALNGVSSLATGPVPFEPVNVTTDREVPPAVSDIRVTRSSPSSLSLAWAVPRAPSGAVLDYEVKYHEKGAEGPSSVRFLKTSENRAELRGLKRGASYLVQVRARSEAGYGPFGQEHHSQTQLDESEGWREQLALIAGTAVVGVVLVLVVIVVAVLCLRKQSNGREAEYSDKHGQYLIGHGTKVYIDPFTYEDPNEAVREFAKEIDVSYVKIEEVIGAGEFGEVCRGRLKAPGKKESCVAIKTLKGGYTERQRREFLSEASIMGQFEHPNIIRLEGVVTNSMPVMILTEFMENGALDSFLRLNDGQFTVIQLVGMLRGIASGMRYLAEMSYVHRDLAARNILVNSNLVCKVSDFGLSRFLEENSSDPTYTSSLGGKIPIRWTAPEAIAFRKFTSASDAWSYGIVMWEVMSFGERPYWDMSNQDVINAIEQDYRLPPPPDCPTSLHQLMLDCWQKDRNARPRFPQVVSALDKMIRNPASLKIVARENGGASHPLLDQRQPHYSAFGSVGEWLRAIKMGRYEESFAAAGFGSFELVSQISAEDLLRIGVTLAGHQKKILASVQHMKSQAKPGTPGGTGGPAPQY
The method, then:
as §1, §2

T3 sequence (Q9UBF8 whole entry): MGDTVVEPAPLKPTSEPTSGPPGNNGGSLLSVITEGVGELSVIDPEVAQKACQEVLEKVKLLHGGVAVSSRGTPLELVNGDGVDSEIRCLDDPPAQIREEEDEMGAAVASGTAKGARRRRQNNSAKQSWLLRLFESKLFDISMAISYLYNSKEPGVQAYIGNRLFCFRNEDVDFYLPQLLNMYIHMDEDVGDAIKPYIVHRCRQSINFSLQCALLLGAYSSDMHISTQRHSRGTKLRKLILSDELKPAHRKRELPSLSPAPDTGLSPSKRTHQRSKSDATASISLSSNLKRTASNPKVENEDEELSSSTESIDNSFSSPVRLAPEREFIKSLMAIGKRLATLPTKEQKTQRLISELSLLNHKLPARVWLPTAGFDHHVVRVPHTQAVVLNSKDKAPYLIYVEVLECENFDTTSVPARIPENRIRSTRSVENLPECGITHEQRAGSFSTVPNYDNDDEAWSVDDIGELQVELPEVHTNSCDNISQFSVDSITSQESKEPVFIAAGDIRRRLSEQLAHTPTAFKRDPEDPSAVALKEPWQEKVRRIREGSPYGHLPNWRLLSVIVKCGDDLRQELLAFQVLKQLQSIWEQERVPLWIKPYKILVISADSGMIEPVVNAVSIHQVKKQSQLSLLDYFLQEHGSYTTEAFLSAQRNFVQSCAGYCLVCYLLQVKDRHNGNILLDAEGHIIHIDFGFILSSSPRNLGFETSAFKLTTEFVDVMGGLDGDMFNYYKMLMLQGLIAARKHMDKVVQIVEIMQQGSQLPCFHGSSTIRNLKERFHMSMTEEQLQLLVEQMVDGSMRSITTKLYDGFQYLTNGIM
T1 sequence (P16591 whole entry): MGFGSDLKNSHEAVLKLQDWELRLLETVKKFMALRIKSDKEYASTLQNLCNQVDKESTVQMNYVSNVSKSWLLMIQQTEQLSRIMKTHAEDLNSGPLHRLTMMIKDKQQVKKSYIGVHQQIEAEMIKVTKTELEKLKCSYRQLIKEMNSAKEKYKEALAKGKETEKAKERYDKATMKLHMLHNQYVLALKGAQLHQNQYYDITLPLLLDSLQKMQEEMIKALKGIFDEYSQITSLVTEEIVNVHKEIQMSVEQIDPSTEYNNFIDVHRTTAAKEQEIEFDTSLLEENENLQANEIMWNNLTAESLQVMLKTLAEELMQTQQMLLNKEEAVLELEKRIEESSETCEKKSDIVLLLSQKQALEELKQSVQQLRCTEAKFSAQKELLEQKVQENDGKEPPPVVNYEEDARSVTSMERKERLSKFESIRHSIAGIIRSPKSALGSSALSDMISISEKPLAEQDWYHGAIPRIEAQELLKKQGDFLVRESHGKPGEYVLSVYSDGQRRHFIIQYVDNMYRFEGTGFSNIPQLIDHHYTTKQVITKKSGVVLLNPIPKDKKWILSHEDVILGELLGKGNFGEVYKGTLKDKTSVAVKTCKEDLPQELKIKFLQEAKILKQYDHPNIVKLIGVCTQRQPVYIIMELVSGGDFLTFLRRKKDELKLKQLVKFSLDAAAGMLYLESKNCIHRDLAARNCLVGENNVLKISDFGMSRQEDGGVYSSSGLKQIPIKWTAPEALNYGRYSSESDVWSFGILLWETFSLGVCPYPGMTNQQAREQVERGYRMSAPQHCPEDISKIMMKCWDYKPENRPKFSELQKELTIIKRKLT

What is called inhibition is the relative decrease from the control value, in per cent. For `COc1cc(-c2cc(-c3cccc(O)c3)cnc2N)cc(OC)c1OC` [K02288, 3-[6-amino-5-(3,4,5-trimethoxy-phenyl)-pyridin-3-yl]-phenol], the inhibition at 0.1 µM amounted to 0.8% in test [1]; 0% in test [2]; 0.8% in test [3]; 0% in test [4]; 0.5% in test [5]; 1.8% in [6]. For the same compound, the inhibition at 0.1 µM in test [7] worked out at 6%; in test [8] it was 0.6%; in test [9], 0%; in [10] it was 0%. The inhibition at 1 µM in test [1] was 7.5%; in [2] it was 0%; in [3] it was -4%; in test [4], 7.2%; in [5], 3.1%; in test [6], 3.9%. For the same compound, the inhibition at 1 µM in test [7] worked out at 43%; in test [8] it was 1.1%; in test [9], 11%; in [10], 5.9%.

`c1ccc2c(-c3cnn4cc(-c5ccc(N6CCNCC6)cc5)cnc34)ccnc2c1` [LDN-193189]: the inhibition at 0.1 µM in test [1] worked out at 2.8%; in test [2], 1.2%; in [3], 3.5%; in [4], 14%; in test [5], 0%; in test [6], 0.8%. Further, the inhibition at 0.1 µM in test [7] is 7.4%; in [8], 1.5%; in test [9], 5.5%; in test [10], -1%. Also, the inhibition at 1 µM in [1] was found to be 3.7%; in test [2], 4.1%; in test [3], 5.8%; in test [4], 56%; in test [5], 0.7%; in [6] it was 3%. The inhibition at 1 µM is 34% in [7], 5.6% in test [8], 27% in test [9] and 6.6% in test [10].
